A short description of data set [1]: Apparent permeability from apical to basolateral side in human Caco2. The conditions noted are these: Caco-2. Background: Caco-2 cells form a polarised layer with tight junctions and transporters.
Data set [2] in a line: Apparent permeability from basolateral to apical side in human Caco2. As to conditions: Caco-2.
Data set [3] in a line: Intrinsic clearance in mouse hepatocytes assessed per 10^6 cells.
Data set [4] in a line: Stability in mouse hepatocytes assessed as half life.
Data set [5] can be described thus: Solubility of compound by turbidimetric assay.
Data set [6] can be described thus: Microsomal stability in mouse liver microsomes assessed as half life.
Data set [7] is described as follows: Plasma protein binding in mouse.
Data set [8] in a line: Plasma protein binding in human.
The nature of data set [9]: Microsomal stability in human liver microsomes assessed as half life. On the technique in general: Liver microsomes are a subcellular fraction often used to study metabolism.
Data set [10] can be described thus: Intrinsic clearance in mouse liver microsomes.
Data set [11] in a line: Intrinsic clearance in human liver microsomes.
Data set [12] is described as follows: Aqueous kinetic solubility of the compound. As to conditions: buffer.
Data set [13] is described as follows: Drug level in rat treated with methyl ethyl(2-(3-(trifluoromethyl)phenyl)benzo[d]oxazol-5-yl)phosphinate assessed as compound formation. It counts as ADME. As to conditions: in vivo.
The species named for data set [14] is Mus musculus. Description: Upregulation of utrophin expression in dystrophin-deficient mouse myoblasts at 10 uM after 72 hrs by Western blot analysis. It is filed as functional. (In general: Immunoblotting shows a protein as a band on a membrane.)
Data set [15] can be described thus: Volume of distribution in mdx mouse at 1 mg/kg, iv. The conditions noted are these: in vivo.
The nature of data set [16]: in vivo. As to conditions: mdx, mouse, po, 5 mg/kg, F.
Data set [17] in a line: Drug metabolism in mouse hepatocytes assessed as interconversion to opposite enantiomeric form after 60 mins. The conditions noted are these: 1 h.
The conditions of data set [18]: mouse, in vivo, po, 5 mg/kg, 24 h.
For data set [19] the following is noted: mouse, in vivo, iv, 1 mg/kg.
The nature of data set [20]: Half life in mdx mouse at 5 mg/kg, po after 1 day. The conditions noted are these: in vivo, t1/2.
A short description of data set [21]: in vivo. As to conditions: mdx, mouse, iv, 1 mg/kg.
Data set [22] concerns Mus musculus. The data set is described as follows: Protection against stretch-induced damage in mdx C57BL/10 mouse assessed as improvement in muscle resistance at 30 mg/kg, po qd for 5 weeks. It counts as functional.
For data set [23] the following is noted: mouse, in vivo, po, 5 mg/kg, 168 h.
The conditions of data set [24]: mouse, in vivo, po, 5 mg/kg, 168 h. The source holds these as a separate data set.
A short description of data set [25]: Drug metabolism in human hepatocytes assessed as interconversion to opposite enantiomeric form after 60 mins. The conditions noted are these: 1 h.
For data set [26] the following is noted: mouse, in vivo, po, 5 mg/kg, 24 h. The source holds these as a separate data set.
For data set [27] the following is noted: mouse, in vivo, po, 5 mg/kg, 24 h. This is another data set of the same source.
The subject of data set [28] is Mus musculus. Description: Protection against DMD in mdx C57BL/10 mouse assessed as force drop in extensor digitorum longus muscle at 30 mg/kg, po qd for 5 weeks measured post-last dose (reference value: 44.9%). It counts as functional.
The species entered for data set [29] is Mus musculus. Description: Upregulation of utrophin expression in dystrophin-deficient mouse myoblasts after 72 hrs by Western blot analysis. It is filed as functional.
For data set [30] the following is noted: mouse, in vivo, po, 5 mg/kg, 168 h. This is another data set of the same source.
The target of data set [31] is 5-hydroxytryptamine receptor 2B (Homo sapiens, UniProt P41595). Description: Antagonist activity at human Gq-coupled 5HT2B receptor expressed in HEK293 cells assessed as inhibition of serotonin-induced calcium mobilization by calcium-sensitive dye based FLIPR assay. It is filed as functional, cell-based.
Chain of 5-hydroxytryptamine receptor 2B (P41595 whole entry): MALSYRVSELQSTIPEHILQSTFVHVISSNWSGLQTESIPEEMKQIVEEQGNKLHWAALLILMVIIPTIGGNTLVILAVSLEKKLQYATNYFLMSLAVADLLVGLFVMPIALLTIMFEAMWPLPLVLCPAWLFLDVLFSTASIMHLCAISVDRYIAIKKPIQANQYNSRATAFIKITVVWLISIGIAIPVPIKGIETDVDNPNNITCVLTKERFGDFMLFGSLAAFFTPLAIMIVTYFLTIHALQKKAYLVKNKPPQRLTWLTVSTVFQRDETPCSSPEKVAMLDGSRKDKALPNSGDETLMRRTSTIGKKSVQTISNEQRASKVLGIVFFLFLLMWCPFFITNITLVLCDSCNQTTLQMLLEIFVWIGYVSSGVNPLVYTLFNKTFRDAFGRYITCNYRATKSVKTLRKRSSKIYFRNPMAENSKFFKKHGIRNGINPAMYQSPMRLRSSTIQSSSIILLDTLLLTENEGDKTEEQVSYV
Data set [32] in a line: Drug metabolism in human hepatocytes assessed as compound racemization after 60 mins. The conditions noted are these: 1 h.
Data set [33] can be described thus: Drug metabolism in mouse hepatocytes assessed as compound racemization after 60 mins. The conditions noted are these: 1 h.
For data set [34] the following is noted: mouse, in vivo, iv, 1 mg/kg. The source holds these as a separate data set.
Data set [35] in a line: Stability in human hepatocytes assessed as half life after 60 mins.
A short description of data set [36]: Intrinsic clearance in human hepatocytes after 60 mins. The conditions noted are these: 1 h.
Data set [37] is described as follows: Stability in mouse hepatocytes assessed as half life after 60 mins.
Data set [38] can be described thus: Intrinsic clearance in mouse hepatocytes after 60 mins. The conditions noted are these: 1 h.

SMILES strings stand for the structures. Converted amounts (≈) assume the structure as drawn. The source made the active and inactive calls. No cut-off for these calls is given here.

Usually Papp A→B stands for the apparent permeability from the apical to the basolateral side of a cell layer. A word on the Papp B→A: it is the apparent permeability from the basolateral to the apical side of a cell layer. For orientation: hepatocyte CLint means a measure of how fast metabolising enzymes remove a compound, apart from limits set by blood flow. High values mean faster metabolism, low ones greater metabolic stability. What is called half-life is the time in which the quantity being followed falls by half. `CCP(=O)(OC1CCC1)c1ccc2oc(-c3cccc(C(F)(F)F)c3)nc2c1` (configuration not stated): the Papp A→B in [1] was found to be 6.38 ×10⁻⁶ cm/s. Besides, the Papp B→A in [2] stood at 3.98 ×10⁻⁶ cm/s. For the same compound, in data set [3], the hepatocyte CLint was 32.8 µL/min/1e6 cells. Further, the half-life in [4] was found to be 0.35 h.
Usually solubility (kinetic) stands for the concentration staying in solution when a stock, usually in DMSO, is diluted into the medium. The compound `O=S1(=O)CCCN1c1ccc2oc(-c3ccc4ccccc4c3)nc2c1` came in with a solubility (kinetic) in [5] of 3 to 10 µM (≈ 1.09 to 3.64 µg/mL).
Usually fraction unbound stands for free concentration divided by total concentration. Take `COP(=O)(c1ccc2nc(-c3ccc(F)cc3)oc2c1)C(C)C` (configuration not stated): the half-life in data set [6] (liver microsomes) was 0.45 h; in data set [9] (liver microsomes), above 17.1 h. The same compound gave a solubility (kinetic) in data set [5] above 100 µM. Also, the fraction unbound in data set [7] is 0.17; in data set [8], 0.04.
In [5], `CC(C)C(=O)Nc1ccc2oc(-c3ccc4ccccc4c3)nc2c1` returned a kinetic solubility of 1 to 3 µM (≈ 0.33 to 0.991 µg/mL).
Consider `CC(=O)Nc1ccc2oc(-c3ccc4ccccc4c3)nc2c1`, for which the kinetic solubility in data set [5] fell in the range of 3 to 10 µM (≈ 0.907 to 3.02 µg/mL).
Broadly, the microsomal CLint is a measure of how fast metabolising enzymes remove a compound, apart from limits set by blood flow. A high value points to faster metabolism. For the compound `CCOP(=O)(CC)c1ccc2oc(-c3ccc(F)cc3)nc2c1` (configuration not stated), the half-life came out at 0.6 h in data set [6] (liver microsomes) and 9.58 h in [9] (liver microsomes). In addition, the kinetic solubility in data set [5] was above 100 µM. Moreover, the microsomal CLint came out at 39.1 µL/min/mg in data set [10] (liver microsomes) and 2.41 µL/min/mg in data set [11] (liver microsomes). The unbound share (fraction unbound) in [7] is 0.16; in [8] it was 0.08.
In data set [12], `CCP(=O)(O)c1ccc2oc(-c3cccc(C(F)(F)F)c3)nc2c1` came in with a kinetic solubility of 337 µM (≈ 120 µg/mL). In data set [8], this compound showed a fraction unbound of 0.01. In data set [3], this compound had a hepatocyte CLint below 2.89 µL/min/1e6 cells. Also, the half-life in data set [4] was 4 h. Besides, the Drug uptake entry in data set [13] is given as “Active”.
Regarding `CCP(=O)(OC1CC1)c1ccc2oc(-c3cccc(C(F)(F)F)c3)nc2c1` (configuration not stated), the Papp A→B in data set [1] was 10.6 ×10⁻⁶ cm/s. Also, the Papp B→A in data set [2] came out at 5.75 ×10⁻⁶ cm/s. The compound further came in with a hepatocyte CLint in data set [3] of 8.65 µL/min/1e6 cells. The half-life in data set [4] is 1.33 h.
As to `CCP(=O)(OC1CC1)c1ccc2nc(-c3cccc(C(F)(F)F)c3)oc2c1` (configuration not stated), in data set [7], the fraction unbound was determined as 0.01. In data set [12], this compound had a kinetic solubility of 652 µM (≈ 258 µg/mL). For the same compound, the hepatocyte CLint in data set [3] worked out at 8.92 µL/min/1e6 cells. Further, the half-life in data set [4] is 1.3 h.
Consider `CCP(=O)(OC)c1ccc2nc(-c3cnc4ccccc4c3)oc2c1` (configuration not stated), for which, in data set [6] (liver microsomes), the half-life was above 73.3 h. The same compound displayed a solubility (kinetic) in data set [5] above 100 µM. For the same compound, the values for the fraction unbound in data set [7] and in data set [8] were 0.23 and 0.1, respectively.
Regarding `CCP(=O)(OC)c1ccc2nc(-c3ccc(F)cc3)oc2c1` (configuration not stated), in the data set listed under Mus musculus [14], the result was inactive.
For orientation: Vd means a proportionality between amount in the body and measured concentration, not a real space. Read a high Vd as extensive tissue distribution. By bioavailability is commonly meant the share of a dose that reaches the circulation, judged against a reference dose that is usually intravenous. A lower bioavailability goes with little systemic uptake. What is called Cmax is the peak of the concentration-time curve. As a reminder, the AUC is concentration integrated over time. Higher therefore signals high exposure. As to `CCP(=O)(OC)c1ccc2oc(-c3ccc(F)cc3)nc2c1` (racemic) [listing 1 of 2 here], the half-life came out at 1.43 h in [6] (microsomes) and 6.38 h in data set [9] (microsomes). This compound also gave a Vd in [15] (mdx, Vd) of 1.46 L/kg. The compound also gave a bioavailability at 168 h in the data set “in vivo [16]” of 53.7%. In addition, the Drug metabolism in data set [17] and in [25] was below 1% throughout. Also, the Cmax in data set [18] was found to be 734 ng/mL; in “in vivo [21]”, 562 ng/mL; in data set [24], 566 ng/mL. Further, the kinetic solubility in data set [5] is above 100 µM. Further, the values for the AUC in data set [19], in [23] and in [26] were 431 ng·h/mL, 1160 ng·h/mL and 1660 ng·h/mL, respectively. Further, the PPB in [7] is given as 75%. Moreover, the half-life at 24 h in [20] was 2.25 h. Also, the values for the Activity with Mus musculus [22] and in the data set on Mus musculus [28] were 29% and 31.8%, respectively. In [8] (PPB), this compound gave a fraction unbound of 0.12. The compound further showed a F in data set [27] of 77.2%.
Turning to `CCP(=O)(OC)c1ccc2oc(-c3ccc(F)cc3)nc2c1` (racemic) [listing 2 of 2 here], in the data set filed under Mus musculus [29], the Activity result is “Dose-dependent effect”.
With `CCP(=O)(OC)c1ccc2oc(-c3cccc(C(F)(F)F)c3)nc2c1` (racemic), the Activity entry in the data set filed under Mus musculus [29] is “Dose-dependent effect”.
Usually EC50 stands for the concentration that produces a half-maximal response. As to `CCP(=O)(OC)c1ccc2oc(-c3ccc(F)cc3)nc2c1` (single isomer, unassigned; (+)), the F in data set [30] stood at 63.7%; in data set [27], 61.6%. The Cmax in [18] turned out to be 542 ng/mL; in [24], 736 ng/mL. For the same compound, the AUC stood at 510 ng·h/mL in data set [19], 1620 ng·h/mL in [23] and 1570 ng·h/mL in data set [26]. Besides, the PPB in [7] came to 80%. Moreover, the Activity came out at 35% in the data set on Mus musculus [22] and 29.4% in the data set on Mus musculus [28]. Also, the EC50 in data set [31] amounted to 9.3 µM.
Turning to `CCP(=O)(OC)c1ccc2oc(-c3ccc(F)cc3)nc2c1` (single isomer, unassigned; (-)), the F in data set [30] was found to be 45.4%; in [27], 39.4%. For the same compound, the Vd in data set [15] is 1.58 L/kg. Besides, the Drug metabolism result in [32] and in data set [33] was “Metabolite_Notdetected” in each case. In addition, the Cmax in data set [18] was found to be 352 ng/mL; in data set [34], 477 ng/mL; in data set [24] it was 299 ng/mL. Further, the area under the curve (AUC) in data set [19] turned out to be 226 ng·h/mL; in data set [23] it was 513 ng·h/mL; in data set [26] it was 444 ng·h/mL. In addition, the PPB in data set [7] is 77%; in data set [8], 85%. Also, in data set [31], the EC50 came out at 50 µM. Moreover, in data set [35], the half-life at 1 h was above 7.67 h. The Activity with Mus musculus [28] worked out at 44.4%.
For `CCS(=O)(=O)c1ccc2oc(-c3ccc4ccccc4c3)nc2c1` [EZUTROMID], the values for the half-life in data set [6] (microsomes) and in data set [9] (microsomes) were 1.1 h and 1.6 h, respectively. Further, the values for the CLH in [36] and in [38] were 31 µL/min and 54 µL/min, respectively. Moreover, the Drug metabolism entry in data set [32] and in [33] was “Metabolite_Notdetected” in each case. The kinetic solubility in [5] fell in the range of 3 to 10 µM (≈ 1.01 to 3.37 µg/mL). For the same compound, the microsomal CLint in data set [10] (microsomes) was determined as 21 µL/min/mg; in data set [11] (microsomes), 14.4 µL/min/mg. The figures for the half-life at 1 h in [37] and in data set [35] were 0.433 h and 0.75 h, respectively. Besides, in data set [7], the fraction unbound is below 0.01.

Values taken from ChEMBL document CHEMBL4619775, “2-Arylbenzo[d]oxazole Phosphinate Esters as Second-Generation Modulators of Utrophin for the Treatment of Duchenne Muscular Dystrophy” (J Med Chem, 2020).
